Results taken from patent publication US12351574B2, “Selective ligands for modulation of GIRK channels” (Northeastern University, priority 2018, dated 2025).

Molecular target: T1, GIRK1/2 (UniProt P48542+P48549)
T1 sequence (P48549 1-501): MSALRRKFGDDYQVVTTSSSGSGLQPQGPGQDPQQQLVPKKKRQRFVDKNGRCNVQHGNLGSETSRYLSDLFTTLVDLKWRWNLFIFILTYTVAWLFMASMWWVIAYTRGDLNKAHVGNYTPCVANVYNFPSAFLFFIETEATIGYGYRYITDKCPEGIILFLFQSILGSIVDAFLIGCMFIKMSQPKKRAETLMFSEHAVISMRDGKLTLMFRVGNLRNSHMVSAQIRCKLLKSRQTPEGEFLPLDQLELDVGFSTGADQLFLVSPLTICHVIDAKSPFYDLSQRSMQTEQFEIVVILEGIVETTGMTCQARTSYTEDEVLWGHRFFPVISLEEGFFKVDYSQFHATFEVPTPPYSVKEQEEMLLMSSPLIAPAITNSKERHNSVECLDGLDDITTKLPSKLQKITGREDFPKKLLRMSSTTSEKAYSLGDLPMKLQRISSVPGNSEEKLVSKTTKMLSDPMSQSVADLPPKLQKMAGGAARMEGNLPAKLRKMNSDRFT
T1 sequence (P48542 1-425): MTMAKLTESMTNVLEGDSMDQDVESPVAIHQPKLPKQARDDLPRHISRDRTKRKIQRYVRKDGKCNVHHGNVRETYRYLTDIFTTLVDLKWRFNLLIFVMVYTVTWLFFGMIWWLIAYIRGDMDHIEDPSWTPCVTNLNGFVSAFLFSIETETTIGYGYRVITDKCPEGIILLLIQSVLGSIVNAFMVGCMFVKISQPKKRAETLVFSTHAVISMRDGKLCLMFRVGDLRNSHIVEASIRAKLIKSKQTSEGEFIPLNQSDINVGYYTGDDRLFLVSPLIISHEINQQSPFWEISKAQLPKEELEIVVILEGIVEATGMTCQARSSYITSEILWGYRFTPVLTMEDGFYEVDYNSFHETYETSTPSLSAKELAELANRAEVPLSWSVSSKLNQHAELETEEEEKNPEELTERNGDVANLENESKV
Experiment: concentration-response, whole-cell patch clamp in HEK-293 cells expressing GIRK1/2
Format: cell-based, human GIRK1, mouse GIRK2
Design: expressed in transfected cells
Settings: FIGS. 5A-5C
Procedure: Culture of HEK293 cells: HEK293-T cells were obtained from ATCC and maintained in DMEM medium supplemented with 10% FBS and 1% penicillin and streptomycin (Hyclone). For patch-clamp studies, cells were seeded on glass coverslips and transfected 24-hours later using a polyethylenimine solution (1 mg/ml) at a ratio of 8 μl per μg of DNA. To study GIRK-currents, cells were transfected with 0.75 μg each of plasmids encoding GIRK1, GIRK2 or GIRK4 as indicated. In the optogenetic experiments, cells were co-transfected with plasmids encoding 5-ptaseOCRL and CIBN-CAAX, as previously described. 5-ptaseOCRL and CIBN-CAAX were a kind gift from the DeCamilli lab, Yale CT. All experiments were performed at room temperature 24-36 hours post transfection.
Patch-clamp recording: Whole-cell currents were recorded with an Axopatch 200B amplifier (Molecular Devices) controlled via a USB-interface (National Instruments) using WinWCP software (University of Strathclyde). […] The barium-sensitive component of the current, observed when cells were perfused with the high-K^+ buffer, was analyzed and was determined by perfusing 5 mM BaCl2 in the high-K^+ buffer at the end of each experiment. […]
Patch-clamp recording: Whole-cell currents were recorded with an Axopatch 200B amplifier (Molecular Devices) controlled via a USB-interface (National Instruments) using WinWCP software (University of Strathclyde). […]

SMILES: Cc1cc(NC(=O)Nc2ccc(Br)s2)n(-c2ccccc2)n1 [GAT1508, 1-(5-bromothiophen-2-yl)-3-(3-methyl-1-phenyl-1H-pyrazol-5-yl)urea]
- potency and efficacy compared to ML297 or GAT1521 (in words): highest potency and efficacy
